{
  "source": "paper PMC3094704",
  "about": "“S-Petasin, the Main Sesquiterpene of Petasites formosanus, Inhibits Phosphodiesterase Activity and Suppresses Ovalbumin-Induced Airway Hyperresponsiveness” (Evidence-based Complementary and Alternative Medicine : eCAM, 2011)",
  "tested_on": "isolated sensitized guinea pig trachea",
  "assay": "OVA-induced tracheal contractions and baseline tension in vitro",
  "method": "Male Hartley guinea pigs (500–600 g) were sensitized by intramuscular injections of 0.7 mL of 5% (w/v) OVA in saline on Days 1, 4 and 43, and in adjuvant on Days 25 and 39 into each thigh, according to a method described by Underwood et al. and modified by us. Three days after the last injection, sensitized guinea pigs were sacrificed by cervical dislocation, and their tracheas removed. Each trachea was cut into six segments. Each segment consisted of three cartilage rings. All segments were cut open opposite the trachealis. […] Tissues were suspended in normal Krebs solution under an initial tension of 1.5 g and allowed to equilibrate for at least 1 h with washing at 15-min intervals. After the tissues were precontracted with KCl (60 mM) and washed with normal Krebs solution, OVA (0.1–100 μg/mL) was cumulatively added, and contractions were allowed to reach a steady state at each concentration. […] Therefore, the log concentration-response curves of OVA were constructed in the absence and presence of S-petasin. The tension of the precontraction induced by KCl was set as 100%.",
  "data": [
    {"smiles": "C=C(C)[C@@H]1C[C@@]2(C)C(=CC1=O)CC[C@@H](OC(=O)/C=C\\SC)[C@@H]2C", "note": "[S-Petasin]", "values": [
      {"measurement": "OVA (100 μg/mL)-induced contractions", "setting": "30–100 μM, 15 min preincubation", "result": "did not significantly inhibit"},
      {"measurement": "Baseline tension", "setting": "30–300 μM", "result": "concentration-dependently and significantly relaxed"}
    ]}
  ]
}
